Reference: patent US20090156657A1, “ANTI-INFLAMMATORY COMPOSITION” (Ajinomoto Co., Inc., priority 2006, published 2009)

What was measured:
NF-κB (p65) = test: Activation of NF-κB (nuclear translocation of p65) in HAEC stimulated with high glucose; assay type: cell-based, human; settings: pre-treatment 5 and 10 μM 24 h, 25 mM glucose 2 h, FIG. 1
Protocol: In the present invention, the term “suppression of NF-κB activation” means suppression of the translocation of NF-κB into the nucleus. The suppression of the translocation of NF-κB into the nucleus can be confirmed by the method described in Example 1. To be specific, a test substance is added to a culture medium of human aortic endothelial cells, the cells are incubated for a predetermined time, the nucleus is extracted from the aforementioned cells stimulated with glucose, and activated NF-κB (p65) translocated into the nucleus is detected. Using the cells before glucose stimulation, wherein NF-κB is not activated, as a negative control and the cells stimulated with glucose and free of addition of a test substance as a positive control, when the detection level of the aforementioned p65 is closer to the negative control than to the positive control, NF-κB activation is evaluated to have been suppressed.
Human aortic endothelial cells (HAEC) were purchased from Clonetics Corp, and the cells cultured for 3-4 passages (37° C., under 5% carbon dioxide gas atmosphere) were used for the experiment. […] Nucleus was extracted from the cells using Nuclear Extract Kit (Active Motif), and then the activated NF-κB (p65) translocated into the nucleus was detected by TransAM NF-κB p65 Kit (Active Motif).

VCAM-1 mRNA = VCAM-1 mRNA expression in HAEC by real-time PCR; assay type: cell-based, human; settings: 10 μM 24 h, 25 mM glucose 3 h, GAPDH internal standard, FIG. 3A
Protocol: (§1) HAEC cells pre-treated with 10 μM of CS or FS for 24 hours were stimulated with 25 mM glucose for 3 hours, and total RNA was extracted with Isogenkit (NIPPON GENE CO., LTD.). From 1 μg of RNA, cDNA was synthesized using 100 U/mL of reverse transcriptase (TAKARA BIO INC.) and 0.1 μM of oligo (dT)-adapter (TAKARA BIO INC.) (total volume of reaction mixture; 50 μL) (42° C., 40 minutes). Real-time PCR was performed using 7300 Real Time PCR system (Applied Biosystems Japan Ltd.) and the PCR product was detected by SYBER Green I.
(§2) PCR reaction composition (RT-PCRkit, TAKARA BIO INC.): 12.5 μL Premix Ex Taq, 2.5 μL SYBER Green I, synthesis primer, ROX reference dye, cDNA (corresponding to 20 ng of total RNA), final reaction volume; 25 μL
(§3) Primers having the following sequences were used.
(§4) PCR was conducted under the following conditions.
(§5) thermal denaturation: at 95° C. for 15 seconds, extension reaction: 40 cycles (3 seconds at 95° C., 31 seconds at 60° C.)
(§6) Expression amounts of VCAM-1 and MCP-1 mRNA were calculated using GAPDH as the internal standard.

MCP-1 mRNA = MCP-1 mRNA expression in HAEC by real-time PCR; assay type: cell-based, human; settings: 10 μM 24 h, 25 mM glucose 3 h, GAPDH internal standard, FIG. 3B
Protocol: as §1, §2, §3, §4, §5, §6

VCAM-1 = VCAM-1 protein expression on HAEC cell membrane (immunostaining); assay type: cell-based, human; settings: 0.1-10 μM 24 h, 25 mM glucose 4 h, FIG. 4A
Protocol: (§7) HAEC cells proliferated to confluence in a 96 well microplate were pre-incubated with 0.1-10 μM serotonin derivative for 24 hours, and stimulated with 25 mM glucose for 4 hours. The cell layer was washed with Hanks solution, and then anti-VCAM-1 monoclonal antibody (Becton Dickinson) was added and the cells were incubated at 37° C. for 1 hour. After washing, the cells were incubated with secondary antibody (peroxidase-labeled anti-mouse IgG goat F(ab′)2 fragment; Cappel) for 1 hour. A color development substrate (o-phenylenediamine dihydrochloride) was added and, about 30 minutes later (room temperature), the absorbance (492 nm) of each well was quantified with a microplate reader. The MCP-1 concentration of the medium was quantified with Human MCP-1 Immunoassay Kit (BioSource International).

MCP-1 = MCP-1 secretion into medium of HAEC (immunoassay); assay type: cell-based, human; settings: 0.1-10 μM 24 h, 25 mM glucose 4 h, FIG. 4B
Protocol: as §7

[1] = test system: U-937 monocyte cells / HAEC; test: Monocyte (U-937) adhesion to HAEC cells; assay type: cell-based, human; settings: HAEC pre-incubated 5 or 10 μM 24 h, 25 mM glucose 4 h; FIG. 5
Protocol: HAEC cells proliferated to confluence in a 24 well microplate were pre-incubated with CS and FS (5 or 10 μM each) for 24 hours and stimulated with 25 mM glucose for 4 hours. The cell layer was washed with Hanks solution, and then a suspension (1×10^6/mL, 200 μL) of U-937 monocyte cells (purchased from ATCC) was added, and the mixture was incubated at 37° C. for 30 minutes. After washing again, the cells were fixed with 1% para-formaldehyde and the number of U-937 cells attached onto HAEC was counted under a microscope (20 fields). The experiment was performed 3 times and the results are shown as an average value thereof. An experiment using fluorescence-labeled U-937 cells was also performed. To be specific, U-937 cells were incubated (37° C., 1 hour) in the presence of 10 μM 2′,7′-bis(2-carboxyethyl)-5(6)-carboxyfluorescein acetoxymethylester (BCECF-AM, Molecular Probes) and washed by centrifugation. Fluorescence-labeled U-937 cells (1×10^6/mL) were added to HAEC cells, and the mixture was incubated at 37° C. for 1 hour. The floating U-937 cells were removed, the plate was washed with PBS buffer and treated with 1% Triton X for 2 hours. The fluorescence amount of the attached cells was quantified (Ex. 503 nm, Em. 525 nm) using a fluorescence plate reader (Bio-Rad, Fluoromark).

U-937 cells / HAEC = test: Migration capability of monocyte (U-937), Transwell system with HAEC; assay type: cell-based, human; settings: HAEC pre-incubated 5 or 10 μM 24 h, 25 mM glucose 4 h; FIG. 7
Protocol: The migration capability of monocyte was measured using the Transwell system (pore size 3 μm; BD Biosciences). HAEC cultured on a transwell placed in a 24 well microplate was pre-incubated with 5 or 10 μM serotonin derivative for 24 hours, and stimulated with 25 mM glucose for 4 hours. 200 μL of U-937 cell suspension (10^6 cells/mL) was added to the transwell and the cells were incubated as-is at 37° C. for 2 hours. The number of cells migrated to the lower chamber of the transwell through the membrane was counted under a microscope (20 fields). The experiment was repeated three times, and the results are shown as an average value thereof. An experiment using fluorescence-labeled U-937 cells was also performed. BCECF-AM-labeled U-937 cells were plated in the upper chamber of the transwell and incubated at 37° C. for 2 hours. The cells migrated to the lower chamber through the membrane were collected in 1 mL of PBS buffer and treated with 1% Triton X for 2 hours. The fluorescence derived from the migrated cells was quantified (Ex. 503 nm, Em. 525 nm) using a fluorescence plate reader (Bio-Rad, Fluoromark).

[2] = test system: TNF-α, IL-1α, IL-1β and IL-6 production; settings: human peripheral blood monocyte stimulated by LPS; cited from earlier work
[3] = test system: IBD model mice (IL-10 deficient cell-transplanted SCID mice); settings: Ikenoue et al. 2005; cited from earlier work

SMILES	nuclear translocation of p65 (activation of NF-κB) (NF-κB (p65))	expression amount of VCAM-1 mRNA (VCAM-1 mRNA)	expression amount of MCP-1 mRNA (MCP-1 mRNA)	VCAM-1 expression on the cell membrane (VCAM-1)	MCP-1 secretion into the medium (MCP-1)	number of U-937 cells attached onto HAEC (cell count) [1]	number of U-937 cells migrated into subendothelium space (cell count) (U-937 cells / HAEC)	concentration inhibiting production of TNF-α, IL-1α, IL-1β and IL-6 at a transcription level [2]	condition (chronic inflammation in the intestine) of the IBD model [3]
O=C(/C=C/c1ccc(O)cc1)NCCc1c[nH]c2ccc(O)cc12 [CS, N-(p-coumaroyl)serotonin]	significantly suppressed	significantly suppressed the increase	significantly suppressed the increase	suppressed the induction of their expressions in a dose-dependent manner	suppressed the induction of their expressions in a dose-dependent manner	decreased the number of attached cells in a serotonin derivative dose-dependent manner	significantly decreased	≥ 50 µM	
C[C@]12C=CC(=O)C=C1CC[C@@H]1[C@@H]2[C@@H](O)C[C@@]2(C)[C@H]1CC[C@]2(O)C(=O)CO [prednisolone]									can be improved
